Data set [1] has as its target T1, NADP-dependent secondary alcohol dehydrogenase (ADH-1) (Trichomonas vaginalis, UniProt A2DJ40).
T1 sequence (A2DJ40 1-365): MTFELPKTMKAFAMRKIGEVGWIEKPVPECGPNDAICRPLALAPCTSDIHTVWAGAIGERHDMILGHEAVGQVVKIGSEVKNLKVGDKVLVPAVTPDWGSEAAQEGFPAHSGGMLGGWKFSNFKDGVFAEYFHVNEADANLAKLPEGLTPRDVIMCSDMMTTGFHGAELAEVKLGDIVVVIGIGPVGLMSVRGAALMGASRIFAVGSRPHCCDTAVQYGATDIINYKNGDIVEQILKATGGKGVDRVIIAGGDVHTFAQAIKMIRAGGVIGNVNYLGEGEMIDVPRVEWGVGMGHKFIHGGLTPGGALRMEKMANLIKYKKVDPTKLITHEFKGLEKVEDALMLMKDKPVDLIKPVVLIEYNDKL
The data set can be described thus: NADPH oxidation at […] nm, acetaldehyde reduction. In kind it is biochemical.

Data set [2] deals with T2, NADP-dependent secondary alcohol dehydrogenase (E. histolytica homologue of ADH-1) (Entamoeba histolytica, UniProt P35630).
T2 sequence (P35630 1-366): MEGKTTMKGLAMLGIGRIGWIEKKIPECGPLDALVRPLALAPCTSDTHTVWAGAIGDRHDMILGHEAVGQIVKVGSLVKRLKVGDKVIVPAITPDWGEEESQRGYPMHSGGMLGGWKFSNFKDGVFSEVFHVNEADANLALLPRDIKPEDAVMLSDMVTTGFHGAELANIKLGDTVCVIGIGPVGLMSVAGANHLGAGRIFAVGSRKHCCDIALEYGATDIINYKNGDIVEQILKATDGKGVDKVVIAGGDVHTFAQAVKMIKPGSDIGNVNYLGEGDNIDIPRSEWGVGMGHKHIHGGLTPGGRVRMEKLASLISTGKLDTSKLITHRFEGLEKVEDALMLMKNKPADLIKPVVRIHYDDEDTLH
Kind of data set: NADPH oxidation at […] nm in cell extract, acetaldehyde reduction. The format is biochemical.

Substrate in data set [3]: NC(=O)c1ccc[n+]([C@@H]2O[C@H](COP(=O)(O)OP(=O)(O)OC[C@H]3O[C@@H](n4cnc5c(N)ncnc54)[C@H](OP(=O)(O)O)[C@@H]3O)[C@@H](O)[C@H]2O)c1
The data set can be described thus: purified protein. The settings on record: 100 mM 2-propanol, pH 6.75, 37 °C, varied: cofactor.

Substrate in data set [4]: CC(C)O
Kind of data set: purified protein. The settings on record: 1 mM NADP+, pH 6.75, 37 °C.

As usually defined, the IC50 is the midpoint of a concentration-inhibition curve. A lower IC50 goes with inhibition by little substance. As usually defined, the inhibition is the relative decrease from the control value, in per cent. On to `CC(C)(COP(=O)(O)OP(=O)(O)OC[C@H]1O[C@@H](n2cnc3c(N)ncnc32)[C@H](O)[C@@H]1OP(=O)(O)O)[C@@H](O)C(=O)NCCC(=O)NCCS` [coenzyme A], for which the midpoint of inhibition in data set [1], the IC50, lay at 0.063 ± 0.017 mM. The inhibition at 100 µM in data set [2] (read-out: Inhibition CoA ^c aldehyde reduction) was found to be 62 ± 22%.

`CC(C)O` [2-propanol]: in data set [1], the IC50 worked out at 96 ± 11 mM. Besides, in data set [2] (read-out: Inhibition 2-propanol ^b aldehyde reduction), the inhibition at 200000 µM is 80 ± 11%.

B1: NADP-dependent secondary alcohol dehydrogenase (ADH-1) (Trichomonas vaginalis G3) (protein)
chain: T1 sequence (A2DJ40 1-365)
A word on the Km: it is the concentration of substrate that gives half-maximal velocity. On to B1, for which the Km was 0.0412 ± 0.0044 mM in “purified protein [3]” and 11.57 ± 1.25 mM in “purified protein [4]”.
